The text below walks through data of PubChem BioAssay (NCI).

Common to all, as to assay: NCI tumour cell line growth inhibition, 48 h
Assay [1] deals with 786-0 renal.
Assay [2] has as its system A498 renal.
For assay [3], the system named is BT-549 breast.
In assay [4] the test system is CAKI-1 renal.
The test system of assay [5] is DU-145 prostate.
For assay [6], the system named is HCC-2998 colon.
Assay [7] relates to HCT-15 colon.
In assay [8] the test system is MDA-N.
Assay [9] has as its system OVCAR-3 ovarian.
The test system of assay [10] is OVCAR-5 ovarian.
Assay [11] has as its system RPMI-8226 leukemia.
Assay [12] has as its system RXF 393 renal.
Assay [13] has as its system SF-268 CNS.
Assay [14] relates to SK-MEL-2 melanoma.
The subject of assay [15] is SK-MEL-28 melanoma.
The test system of assay [16] is SK-MEL-5 melanoma.
Assay [17] concerns SN12C renal.
Assay [18] concerns SNB-75 CNS.
Assay [19] has as its system UACC-257 melanoma.
Assay [20] relates to UO-31 renal.

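Exposure lasted 48 hours, with cells grown in 96-well plates and compounds tested at five concentrations. The concentration for full growth arrest is given as TGI.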

Consider `Cc1ccc([N+](=O)[O-])cc1S(=O)(=O)Nc1ccc(C2=NN(S(=O)(=O)c3cc([N+](=O)[O-])ccc3C)C(c3ccccc3)C2)cc1` (stereo not given), for which the TGI in assay [1] was over 100 µM; in assay [2] it was 82.6 µM; in assay [3], 57.2 µM; in [4], over 100 µM; in assay [5], over 100 µM; in assay [6] it was 59.8 µM. Moreover, the TGI in [7] was over 100 µM; in assay [8], 97.3 µM; in [9], 89.4 µM; in [10], over 100 µM; in [11] it was 76.1 µM; in assay [12], over 100 µM. The TGI is 56.7 µM in assay [13]; 61.6 µM in assay [14]; over 100 µM in [15]; over 100 µM in assay [16]; over 100 µM in assay [17]; over 100 µM in [18]. The values for the TGI in [19] and in assay [20] were 74.7 µM and over 100 µM, respectively.

With `Cc1c2ccccc2c(C2C3C(=O)N(c4ccc(Br)cc4)C(=O)C3ON2C(C(N)=O)c2ccccc2)c2ccccc12` (stereo not given), the TGI in assay [1] came out at 33.1 µM; in assay [2], 11.7 µM; in assay [3], 43.4 µM; in [4] it was 21.3 µM; in [5], 26.7 µM; in assay [6] it was 26.6 µM. Also, the TGI is 18.7 µM in assay [7]; 35.1 µM in [8]; 12.2 µM in assay [9]; 23.2 µM in assay [10]; 4.63 µM in assay [11]; 37.3 µM in assay [12]. Moreover, the TGI was over 100 µM in assay [13]; 30.3 µM in assay [14]; 74.6 µM in assay [15]; 11.9 µM in assay [16]; 53.5 µM in [17]; 17.3 µM in [18]. The TGI was found to be 62.4 µM in assay [19] and 34.6 µM in assay [20].

`O=C(C=P(c1ccccc1)(c1ccccc1)c1ccccc1)c1ccc(-c2cccs2)cc1`: the TGI in [1] was determined as 17.6 µM; in assay [2] it was 10.8 µM; in assay [3], 40.7 µM; in [4], 19.6 µM; in assay [5] it was 22.3 µM; in assay [6], 6.46 µM. Further, the TGI was 24.7 µM in assay [7]; 11.7 µM in assay [8]; 8.52 µM in [9]; 17.7 µM in assay [10]; 5.07 µM in assay [11]; 15.4 µM in assay [12]. The TGI came to 27.1 µM in [13]; 3.11 µM in assay [14]; 15.7 µM in [15]; 5.25 µM in assay [16]; 17.6 µM in assay [17]; 8.86 µM in assay [18]. For the same molecule, the values for the TGI in [19] and in assay [20] were 6.35 µM and 14.4 µM, respectively.

Turning to `COc1cc2c(c(OC)c1OC)-c1ccc(OC)c(=O)cc1C(NC(=O)COc1ccccc1)CC2` (stereo not given), the TGI in assay [1] was 93.8 µM; in assay [2], 2.46 µM; in assay [3], 5.12 µM; in assay [4] it was 15.3 µM; in [5], under 0.01 µM; in assay [6], 1.04 µM. The TGI in [7] is over 100 µM; in assay [8], under 0.01 µM; in [9], under 0.0355 µM; in assay [10], over 100 µM; in [11], 38.3 µM; in assay [12] it was over 71.5 µM. Also, the TGI in assay [13] was 61.6 µM; in assay [14], over 15.8 µM; in assay [15], over 100 µM; in assay [16], 0.0371 µM; in assay [17] it was over 100 µM; in assay [18], 10.5 µM. Also, the TGI in [19] and in [20] was over 100 µM each time.
